Experimental data published in patent publication US11787850B2, “Peptidic TGF-beta antagonists” (priority 2015, dated 2023).

Tests used:
[1] = Aggregation assay: Microcon 100 kDa filtration, Tricine SDS-PAGE, silver staining; assay type: physicochemical; settings: for aggregation state (aggregated versus soluble fraction): 50 mM Tris-HCl pH 7.0, 2 hrs at 4° C., 100 kDa cut-off; for effect of DMSO treatment on aggregation: 0.5% DMSO for 2 hrs at 4° C.
Procedure: Peptide X (X, 40 amino acids) and P16 (16 amino acids) were left untreated (−) or treated with 0.5% DMSO (+) for 2 hrs at 4° C. The aggregated and non-aggregated soluble fractions were then separated using a Microcon™ centrifugal filtration device (Millipore), with a molecular weight cut-off of 100 kDa. This device allows passage of molecules <100 kDa through the filter but retains larger molecules (aggregates). The aggregated (FIG. 1A—left panel) and soluble (FIG. 1B—right panel) fractions were then separated by 17% Tricine-SDS gel electrophoresis and peptides detected by silver staining. In the conditions tested, multiple bands with various staining intensities were detected in peptide X aggregated fraction and two of these bands were decreased with DMSO treatment (A—left panel, arrows) leading to an increase in the amount of soluble peptide X (B—right panel, arrow, lane 2 versus 3). […] (A-B) Lane 1: Molecular weight marker. Lanes 2-5: samples.
Aggregation assay. Soluble peptides were separated from aggregates and precipitates by filtration. The molecular weight cut-off of the filter was chosen such that soluble protein was allowed to pass through the filter, while aggregate forms were retained. Peptide X and P16 previously dissolved in 50 mM Tris-HCl (pH=7.0) were left untreated or treated with 0.5% dimethyl sulfoxide (DMSO) for 2 hours at 4° C. Soluble protein was then separated from aggregated protein using a Microcon™ concentrator (Millipore), with a molecular weight cut-off of 100 kDa. The Microcon was spun in a desktop centrifuge at 16,000×g for 15 min. Aggregated protein retained on the membrane was resuspended in H2O, pipetting repeatedly across the membrane to ensure that as much protein as possible was removed. Aliquots of soluble protein and aggregated protein were each mixed with 5× sample buffer (250 mM Tris-HCl, 40% glycerol, 140 mM SDS, 0.6 M β-mercaptoethanol, pH 6.8) and heated to 85-90° C. for 10 min prior to Tricine SDS-PAGE. Samples were analyzed by 17% Tricine SDS-PAGE and peptides visualized by silver staining. Aggrescan Analysis
Peptide X (X, 40 amino acids) and P16 (16 amino acids) were left untreated (−) or treated with 0.5% DMSO (+) for 2 hrs at 4° C. The aggregated and non-aggregated (soluble) fractions were then separated using a Microcon centrifugal filtration device (Millipore), with a molecular weight cut-off of 100 kDa. This device allows passage of molecules less than 100 kDa through the filter but retains larger molecules (aggregates). The aggregated and soluble fractions were then separated by 17% Tricine-SDS gel electrophoresis and peptides visualized by silver staining.

[2] = system: TGF-β1-induced Smad3-driven (CAGA12-lux) transcriptional activity; assay: Luciferase reporter assay in HEK293-(CAGA)12 cells; assay type: cell-based; settings: 100 pM TGF-β1, 18 hours; for inhibition of TGF-β1-induced CAGA12-lux activity, peptide pre-treated with DMSO: 0.5% DMSO pre-treatment (FIG. 8); for inhibition of TGF-β1-induced CAGA12-lux activity, peptide in Tris buffer left untreated: no DMSO (FIG. 8)
Procedure: FIGS. 5A and 5B illustrate that some small molecular weight CD109-based peptides (Peptide A, P28, P21 and […]) inhibit TGF-β1-induced Smad3-driven transcriptional activity. […] Cell lysates were analyzed for luciferase activity and data are expressed as mean±standard deviation of relative light units (RLU). […] Under the conditions tested, peptide A, P28, P21 and P16 inhibited TGF-β1-induced transcriptional (CAGA12-lux) activity.
FIG. 6 illustrates that the small molecular weight CD109-based peptide P16 (but not P16-2, P11 or X-4) inhibit TGF-β1-induced Smad3-driven transcriptional activity. HEK293 cells stably transfected with the Smad3-responsive CAGA12-lux luciferase reporter were treated for 18 hours without (−) or with (+) […] TGF-β1 in the presence or absence of 10 nM of P16-2 (16 aa scrambled control), P11 (11 aa sequence), P16 (16 aa), X-4 (11 aa) or Tris-buffer (buffer control) as indicated. Cell lysates were analyzed for luciferase activity and data are expressed as mean±standard deviation of luciferase activity. Results are shown as luciferase activity for the peptides used.
FIG. 8 illustrates that DMSO treatment enhances the TGF-β inhibitory activity of Peptide X but not P21 or P16. HEK293 cells stably transfected with the Smad3-responsive CAGA12-lux luciferase reporter were treated for 18 hours without (−) or with (+) 100 pM TGF-β1 in the presence or absence of Peptide X (PX), P21 or P16. The peptides were previously dissolved in Tris buffer and left untreated or treated with DMSO prior to addition to the cells. Addition of Tris buffer or DMSO alone served as additional controls. Cell lysates were analyzed for luciferase activity and data are expressed as mean±standard deviation of luciferase activity. Results are shown as luciferase activity. […] P16 and P21 inhibited TGF-β1-induced CAGA12-lux activity and these effects were not enhanced by DMSO treatment. […]
FIG. 25 is a graph showing the ability of CD109-based peptides to inhibit TGF-β-induced, Smad3-driven transcriptional activity. HEK293 cells stably transfected with the Smad3-responsive CAGA12-lux luciferase reporter were treated for 18 hours without (−) or with (+) 100 pM TGF-b1 in the presence or absence of 10 nM of P16, P16.2, peptide A, P15, P14, P13, P12, P11, peptide X, P21, or 2% NH4OH buffer (buffer control) as indicated. Cell lysates were analyzed for luciferase activity and data are expressed as mean±standard deviation of luciferase activity.
HEK293 cells stably transfected with the Smad3-responsive CAGA12-lux luciferase reporter construct were incubated with dimeric or monomeric forms of peptide A as indicated and treated with 100 pM TGF-b overnight. Cell lysates were analyzed for luciferase activity. Data are presented as fold-activation compared to TGF-b1 treatment alone (scaled to 1.0). M+D, mixture of monomer and dimer.
Luciferase reporter assays were performed using a HEK293-(CAGA)12 cell line that stably expresses a TGF-β/Smad3-responsive (CAGA)12-luciferase reporter gene [Cash et al. 2013]. HEK293-(CAGA)12 cells were grown in 24-well plates to 70-80% confluency and serum-starved overnight. Cells were washed with PBS and treated with or without TGF-β1 in presence or absence of various CD109-based peptides as indicated in the figure legends. Cells were then washed twice with cold PBS and solubilized in 100 μl of Passive Lysis Buffer (Promega) for 30 min at 4° C. The cell lysates were assayed for luciferase and β-galactosidase activities using commercially available kits (BD Biosciences).
HEK293 cells stably transfected with the Smad3-responsive CAGA12-lux luciferase reporter were treated for 18 hours without (−) or with (+) 100 pM TGF-β1 in the presence or absence of 10 nM (FIG. 5A) or 5 nM (FIG. 5B) of peptide A (Pep A, 161 aa), P28 (28 aa peptide), P21 (21 aa peptide), P16 (16 aa peptide), P16.2 scrambled peptide (16 aa, scrambled P16 sequence) or Tris-buffer (negative control for peptides) as indicated. […]

[3] = system: TGF-β1-induced Smad3-driven (CAGA12-lux) transcriptional activity; assay: Luciferase reporter assay in HEK293-(CAGA)12 cells; assay type: cell-based

Row | Sequence | aggregation state (aggregated versus soluble fraction) [1] | effect of DMSO treatment on aggregation [1] | inhibition of TGF-β1-induced CAGA12-lux activity, peptide pre-treated with DMSO [2] | inhibition of TGF-β1-induced CAGA12-lux activity, peptide in Tris buffer left untreated [2] | inhibition of TGF-β1-induced CAGA12-lux activity ([3]; 10 nM or 5 nM peptide, 100 pM TGF-β1, 18 hours (FIG. 5)) | inhibition of TGF-β1-induced CAGA12-lux activity ([3]; 10 nM peptide, 100 pM TGF-β1, 18 hours (FIG. 6))
1 | ETWIWLDTNMGSRIYQ [Peptide P16] | aggregated only to a minor extent | not altered by DMSO treatment | not enhanced | inhibited | inhibited | inhibited
2 | LGSSPHVRKHFPETWIWLDTNMGSRIYQEFEVTVPDSITS (Peptide X) | existed predominantly in aggregated form | partially decreased | inhibited | did not | – | –
